The values that follow are results of earlier work, collected in patent US20090214716A1 (priority 2005, published 2009).

For data set [1] the following is noted: caffeine 0.3 mg/kg/hr vs placebo.
Data set [2] has as its target T1, A2A receptors that are located on the platelet surface (Homo sapiens, UniProt P29274).
T1 construct: up-regulation of endogenous adenosine receptors in normal subjects; host or cells: human platelets of normal subjects (endogenous)
The following applies: chronic caffeine consumption.

T1 sequence (P29274 whole entry): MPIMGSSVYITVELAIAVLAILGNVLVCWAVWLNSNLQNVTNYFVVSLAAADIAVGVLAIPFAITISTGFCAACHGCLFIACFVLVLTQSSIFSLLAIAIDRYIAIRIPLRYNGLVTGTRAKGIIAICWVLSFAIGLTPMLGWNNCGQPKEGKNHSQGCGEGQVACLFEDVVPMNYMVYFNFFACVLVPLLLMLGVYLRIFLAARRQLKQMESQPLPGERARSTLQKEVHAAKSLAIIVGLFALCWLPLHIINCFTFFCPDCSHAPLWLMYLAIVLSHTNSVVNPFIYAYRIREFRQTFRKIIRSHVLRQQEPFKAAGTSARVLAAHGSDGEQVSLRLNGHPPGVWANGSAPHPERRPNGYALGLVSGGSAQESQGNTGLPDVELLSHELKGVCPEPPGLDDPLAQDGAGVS

Regarding `Cn1c(=O)c2c(ncn2C)n(C)c1=O` [caffeine, 1,3,7-trimethylxanthine], in data set [1], the “performance on cognitive tests” value was “performed better on cognitive tests” and the reported sleepiness result is “reported feeling sleepier than their placebo counterparts”. In data set [2], the platelet aggregability result is reported as “reduction in platelet aggregability”. In addition, in data set [2] (normal subjects), the “effect on endogenous adenosine receptors” value is on record as “sensitization and/or up-regulation of endogenous adenosine receptors”.
